From patent US10233151B2, “Use of a novel 3-aryl-4-catechol-pyrrole-N-propanol compound and the derivatives thereof to treat cancer and diseases related to excessive angiogenesis” (Centre National de la Recherche Scientifique (CNRS), priority 2014, dated 2019)

Key:
[1] = EPR competition with BMPO, superoxide anion from KO2 in DMSO (organic phase); details: KO2 5 mM in DMSO, BMPO 25 mM, room temperature; read-out: IC50, inhibition of the formation of the BMPO superoxide adduct
Method: The reactivity of compound (1) with superoxide anion in the organic phase was studied by EPR at room temperature using a competition method with the superoxide trapping reagent BMPO (5-tent-butoxycarbonyl-5-methyl-1-pyrroline N-oxide) (FIG. 1A). The superoxide anion source is potassium salt (KO2) used at 5 mM in DMSO after ultrasound-assisted dissolution. The concentrations used for compound (1) are between 0.31 and 40 μM. The trapping reagent BMPO is used at a final concentration of 25 mM. These experiments were carried out with a MiniScope MS 100 EPR spectrometer (Magnettech GmbH, Germany), operating at a frequency of 9.5 GHz (X-band) with the following parameters: magnetic field: 336.0±9.9 mT; sweep time: 20 s; sampling: 4096 points; modulation amplitude: 0.10 mT; modulation frequency: 100 kHz; gain: 900; microwave power: 100 mW.

[2] = EPR competition with BMPO, superoxide anion from xanthine/xanthine oxidase (aqueous phase); type: biochemical; details: xanthine oxidase 53 mU/mL + xanthine 250 μM in PBS pH 7.4, BMPO 50 mM, 10 minutes of incubation; read-out: IC50, inhibition of the formation of the BMPO superoxide adduct
Method: The reactivity of compound (1) with superoxide anion in the aqueous phase was also studied by EPR at room temperature using the same competition method with the trapping reagent BMPO at 50 mM (FIG. 1B). In this case, superoxide anion is produced by enzymatic reaction of xanthine oxidase (XO, 53 mU/mL) with xanthine (X, 250 μM) in PBS (pH 7.4) containing 0.1 mM ethylenediaminetetraacetic acid (EDTA). The concentrations used for compound (1) are between 0.34 μM and 43.1 μM. These experiments were carried out with an ELEXSYS E500 EPR spectrometer (Bruker, Wissembourg, France), operating at a frequency of 9.82 GHz (X-band) with the following parameters: magnetic field: 349.0 ±6.6 mT; sweep time: 41.94 s; sampling: 1024 points; time constant: 40.96 ms; conversion time: 40.96 ms; modulation amplitude: 0.10 mT; modulation frequency: 100 kHz; gain: 60 dB; microwave power: 10 mW.

[3] = system: U87 cells; assay: Cell growth test (CellTiter-Blue), U87; type: cell-based; details: Homo sapiens, U-87 MG; U87, normoxia, 72 hours; read-out: IC50 (50% decrease in cell growth)
Method: (§1) The biological activity of compound (1), as well as that of its structural analogues, was studied in vitro on 7 different cancer cell lines: • HCT-116 (colorectal cancer) • U87 (glioblastoma) • K562 (myeloid leukemia) and K562 R • MDA-MB 231 (mammary adenocarcinoma) • MCF-7 (mammary adenocarcinoma) • A549 (pulmonary alveolar adenocarcinoma)
(§2) The cells selected for this study were incubated at 37° C. in the presence of compound (1) added in the culture medium at various concentrations and at various times. The set of experiments carried out made it possible to determine the degree of cytotoxicity of the compound tested (IC50), its capacity to induce cell death by apoptosis, in close dependence on extracellular superoxide anion for its activation.
(§3) The effect of compound (1) on the growth of HCT-116, U87, K562, K562R, MDA-MB 231, MCF-7 and A549 cells, cultured in normoxia, was evaluated using a cell growth test (CellTiter-Blue™ Cell Viability Assay, Promega).

[4] = system: HCT-116 cells; assay: Cell growth test (CellTiter-Blue), HCT-116; type: cell-based; details: Homo sapiens, HCT-116, 72 h, HCT-116, normoxia, 72 hours; read-out: IC50 (50% decrease in cell growth)
Method: as §1
as §2, with “activation. […]” for “activation.”

[5] = system: human endothelial cells (HUVEC); assay: De novo formation of vascular tubes on Matrigel; type: cell-based; details: HUVEC in Matrigel, 24 hours
Method: In order to monitor the effect of compound (1) on “de novo” formation of vascular tubes, human endothelial cells (HUVEC) were cultured in a matrix (Matrigel), in the presence or absence of compound (1). After 24 hours, the effect of compound (1) is analyzed by optical microscopy and is illustrated by photographs. […] Compound (1) thus acts directly on growing endothelial cells by blocking the formation of capillaries, in contrast to the absence of effect on a capillary network already formed, in the “quiescent” state.

[6] = system: MCF-7 cells; assay: Cell growth test (CellTiter-Blue), MCF-7; type: cell-based; details: Homo sapiens, MCF7; MCF-7, normoxia, 72 hours; read-out: IC50 (50% decrease in cell growth)
Method: as §1, §2, §3

[7] = EPR at 77 K, disappearance of the O2°- signal; details: KO2 2.5 mM in DMSO, dependent on concentration
Method: In order to follow the direct interaction of compound (1) with superoxide anion, solid potassium superoxide (KO2) was dissolved by sonication in DMSO (final concentration 2.5 mM), then mixed with compound (1) and immediately cooled by immersion in liquid nitrogen. EPR analysis at 77 K (liquid nitrogen) was carried out with a MiniScope MS 100 EPR spectrometer, operating at a frequency of 9.5 GHz (X-band) with the following parameters: magnetic field: 336.0±49.8 mT; sweep time: 20 s; sampling: 4096 points; modulation amplitude: 0.10 mT; modulation frequency: 100 kHz; gain: 900; microwave power: 6 mW.

OCCCn1cc(-c2ccccc2)c(-c2ccc(O)c(O)c2)c1 [compound (1)]
IC50 [1]: 2.5 µM
IC50 [2]: 3.2 µM
IC50 [3]: 7 µM
IC50 [4]: 7.5 µM
de novo formation of vascular tubes (capillaries) [5]: prevents the formation of capillaries
IC50 [6]: 15 µM
EPR signal of superoxide anion [7]: decrease in the EPR signal of superoxide anion
